ChEMBL document CHEMBL5674860, “Optimized Dual-Glo Assay to identify co-culture-induced drug vulnerabilities in 3D CRC models” (2024)

Key:
Format in all cases: functional, Homo sapiens
Set-up in all cases: dose or concentration left out as unconfirmed
[1] = test system: Colon cancer organoid; assay: Optimized Dual-Glo assay to identify co-culture induced drug vulnerabilities using donated chemical probes and chemogenomics kinase set in O14 CRC organoid and F14 CAF mono and co-culture. […] Cell viability is reported both mono and co-culture models.
[2] = test system: Colon cancer organoid; assay: Optimized Dual-Glo assay to identify co-culture induced drug vulnerabilities using donated chemical probes and chemogenomics kinase set in O06 CRC organoid and F06 CAF mono and co-culture. […] Cell viability is reported both mono and co-culture models.
[3] = test system: Colon cancer organoid; assay: Optimized Dual-Glo assay to identify co-culture induced drug vulnerabilities using donated chemical probes and chemogenomics kinase set in O20 CRC organoid and F20 CAF mono and co-culture. […] Cell viability is reported both mono and co-culture models.
[4] = Culture type Co-Culture, Transduced with Lucferase2-P2A-EGFP lentivirus
[5] = Culture type Co-Culture, Transduced with Renilla-dsRed lentivirus
[6] = Culture type Mono-Culture, Transduced with Lucferase2-P2A-EGFP lentivirus
[7] = Culture type Mono-Culture, Transduced with Renilla-dsRed lentivirus

`O=C(Nc1cccnn1)N1CCC(=Cc2cccc(Oc3ccc(C(F)(F)F)cn3)c2)CC1` was tested, and the “Cell Viability” value [1, 4] was 80.0964%, the “Cell Viability” value [1, 5] was 115.877% and the “Cell Viability” value [1, 6] was 79.6396%. For the same molecule, the “Cell Viability” value [1, 7] was 77.8588%, the “Cell Viability” value [2, 4] was 113.161% and the “Cell Viability” value [2, 5] was 193.053%. For the same molecule, the “Cell Viability” value [2, 6] was 80.1285%, the “Cell Viability” value [2, 7] was 90.1757% and the “Cell Viability” value [3, 4] was 75.4997%. For the same molecule, the “Cell Viability” value [3, 5] was 114.419%, the “Cell Viability” value [3, 6] was 100.525% and the “Cell Viability” value [3, 7] was 97.4491%.
For `COc1ccccc1S(=O)(=O)Nc1ccc2c(c1)CN(C)C(=O)N2`, the “Cell Viability” value [1, 4] was 98.1337%, the “Cell Viability” value [1, 5] was 101.069% and the “Cell Viability” value [1, 6] was 91.805%. For the same molecule, the “Cell Viability” value [1, 7] was 99.3977%, the “Cell Viability” value [2, 4] was 75.1061% and the “Cell Viability” value [2, 5] was 112.248%. The “Cell Viability” value [2, 6] was 98.6756%, the “Cell Viability” value [2, 7] was 116.533% and the “Cell Viability” value [3, 4] was 111.384%. For the same molecule, the “Cell Viability” value [3, 5] was 99.8859%, the “Cell Viability” value [3, 6] was 75.6376% and the “Cell Viability” value [3, 7] was 98.229%.
In the case of `COc1cc2c(cc1NS(=O)(=O)c1ccc(Br)cc1C)n(C)c(=O)n2C`, the “Cell Viability” value [1, 4] is reported as 78.4023%, the “Cell Viability” value [1, 5] is reported as 92.6515% and the “Cell Viability” value [1, 6] is reported as 95.4962%. For the same molecule, the “Cell Viability” value [1, 7] was 108.084%, the “Cell Viability” value [2, 4] was 53.0589% and the “Cell Viability” value [2, 5] was 146.987%. For the same molecule, the “Cell Viability” value [2, 6] was 78.5311%, the “Cell Viability” value [2, 7] was 120.075% and the “Cell Viability” value [3, 4] was 86.3374%. For the same molecule, the “Cell Viability” value [3, 5] was 193.757%, the “Cell Viability” value [3, 6] was 91.9028% and the “Cell Viability” value [3, 7] was 113.163%.
In the case of `Clc1cccc(-c2nnnn2Cc2cccnc2)c1Cl`, the “Cell Viability” value [1, 4] is reported as 106.43%, the “Cell Viability” value [1, 5] is reported as 104.512% and the “Cell Viability” value [1, 6] is reported as 115.794%. The “Cell Viability” value [1, 7] was 81.6635%, the “Cell Viability” value [2, 4] was 143.79% and the “Cell Viability” value [2, 5] was 176.132%. For the same molecule, the “Cell Viability” value [2, 6] was 116.081%, the “Cell Viability” value [2, 7] was 109.73% and the “Cell Viability” value [3, 4] was 106.259%. The “Cell Viability” value [3, 5] was 101.74%, the “Cell Viability” value [3, 6] was 98.4532% and the “Cell Viability” value [3, 7] was 98.284%.
With `Cc1nc(N2CC[C@H](O)C2)ncc1-c1cc(C(F)(F)F)cc2[nH]ncc12` the “Cell Viability” value [1, 4] was 63.6905%, the “Cell Viability” value [1, 5] was 138.157% and the “Cell Viability” value [1, 6] was 56.4353%. For the same molecule, the “Cell Viability” value [1, 7] was 87.4633%, the “Cell Viability” value [2, 4] was 111.861% and the “Cell Viability” value [2, 5] was 161.788%. The “Cell Viability” value [2, 6] was 77.8362%, the “Cell Viability” value [2, 7] was 94.0965% and the “Cell Viability” value [3, 4] was 47.2711%. The “Cell Viability” value [3, 5] was 153.575%, the “Cell Viability” value [3, 6] was 55.4223% and the “Cell Viability” value [3, 7] was 100.169%.
For `O=C1CCc2cc(Nc3cc(OC4CCOCC4)c([N+](=O)[O-])cc3Cl)ccc2N1`, the “Cell Viability” value [1, 4] was 95.0687%, the “Cell Viability” value [1, 5] was 106.674% and the “Cell Viability” value [1, 6] was 142.925%. For the same molecule, the “Cell Viability” value [1, 7] was 117.869%, the “Cell Viability” value [2, 4] was 112.978% and the “Cell Viability” value [2, 5] was 126.115%. The “Cell Viability” value [2, 6] was 116.283%, the “Cell Viability” value [2, 7] was 106.249% and the “Cell Viability” value [3, 4] was 150.133%. The “Cell Viability” value [3, 5] was 114.972%, the “Cell Viability” value [3, 6] was 136.194% and the “Cell Viability” value [3, 7] was 114.49%.
`CCNC(=O)c1cc2c(N3CCOC[C@@H]3C)ccnc2n1C` was tested, and the “Cell Viability” value [1, 4] was 83.5289%, the “Cell Viability” value [1, 5] was 107.252% and the “Cell Viability” value [1, 6] was 73.6623%. The “Cell Viability” value [1, 7] was 93.9449%, the “Cell Viability” value [2, 4] was 128.018% and the “Cell Viability” value [2, 5] was 156.16%. The “Cell Viability” value [2, 6] was 122.983%, the “Cell Viability” value [2, 7] was 98.196% and the “Cell Viability” value [3, 4] was 107.341%. For the same molecule, the “Cell Viability” value [3, 5] was 102.95%, the “Cell Viability” value [3, 6] was 119.318% and the “Cell Viability” value [3, 7] was 105.417%.
`CCc1cc(Nc2nccc(-c3c(-c4ccc(OC)c(C(=O)Nc5c(F)cccc5F)c4)nc4ccccn34)n2)c(OC)cc1N1CCC(N2CCN(S(C)(=O)=O)CC2)CC1` was tested, and the “Cell Viability” value [1, 4] was 94.7667%, the “Cell Viability” value [1, 5] was 100.13% and the “Cell Viability” value [1, 6] was 92.2589%. The “Cell Viability” value [1, 7] was 95.6551%, the “Cell Viability” value [2, 4] was 86.7992% and the “Cell Viability” value [2, 5] was 78.7013%. The “Cell Viability” value [2, 6] was 91.9397%, the “Cell Viability” value [2, 7] was 111.569% and the “Cell Viability” value [3, 4] was 116.043%. The “Cell Viability” value [3, 5] was 82.2783%, the “Cell Viability” value [3, 6] was 81.9449% and the “Cell Viability” value [3, 7] was 100.572%.
`Cc1c(C(=O)O)cc(-c2ccc(C3CCNCC3)cc2)c2ccc(-c3ccc(C(F)(F)F)cc3)cc12.Cl` was tested, and the “Cell Viability” value [1, 4] was 89.0162%, the “Cell Viability” value [1, 5] was 119.102% and the “Cell Viability” value [1, 6] was 89.8992%. The “Cell Viability” value [1, 7] was 99.4723%, the “Cell Viability” value [2, 4] was 69.2582% and the “Cell Viability” value [2, 5] was 93.9723%. The “Cell Viability” value [2, 6] was 78.1885%, the “Cell Viability” value [2, 7] was 87.9203% and the “Cell Viability” value [3, 4] was 115.549%. The “Cell Viability” value [3, 5] was 99.1911%, the “Cell Viability” value [3, 6] was 103.532% and the “Cell Viability” value [3, 7] was 103.975%.
With `C[C@@H](c1cccc(C#N)c1)n1cc(Cl)cc(C(N)=O)c1=N.Cl` the “Cell Viability” value [1, 4] was 96.0836%, the “Cell Viability” value [1, 5] was 104.787% and the “Cell Viability” value [1, 6] was 81.7502%. The “Cell Viability” value [1, 7] was 103.626%, the “Cell Viability” value [2, 4] was 92.5611% and the “Cell Viability” value [2, 5] was 127.503%. For the same molecule, the “Cell Viability” value [2, 6] was 97.2998%, the “Cell Viability” value [2, 7] was 98.9566% and the “Cell Viability” value [3, 4] was 64.263%. For the same molecule, the “Cell Viability” value [3, 5] was 72.4154%, the “Cell Viability” value [3, 6] was 105.334% and the “Cell Viability” value [3, 7] was 111.16%.
`O=C(Nc1cccnn1)N1CC(C/C=C/c2cncc(Oc3ccc(C(F)(F)F)cn3)n2)C1` was tested, and the “Cell Viability” value [1, 4] was 84.7499%, the “Cell Viability” value [1, 5] was 109.288% and the “Cell Viability” value [1, 6] was 99.5215%. The “Cell Viability” value [1, 7] was 99.7577%, the “Cell Viability” value [2, 4] was 131.321% and the “Cell Viability” value [2, 5] was 196.307%. For the same molecule, the “Cell Viability” value [2, 6] was 116.585%, the “Cell Viability” value [2, 7] was 92.4101% and the “Cell Viability” value [3, 4] was 97.9448%. The “Cell Viability” value [3, 5] was 112.944%, the “Cell Viability” value [3, 6] was 119.523% and the “Cell Viability” value [3, 7] was 106.69%.
